Assay results from patent US11795169B2, “MAP4K4 inhibitors” (IMPERIAL COLLEGE INNOVATIONS LIMITED, priority 2017, dated 2023).
Converted amounts (≈) assume the structure as drawn. Read-outs that look alike come from different tables or passages of the source.

Tests used:
Cyp 2C9 = Cyp 2C9 (Homo sapiens (Human), UniProt P11712); assay: Cyp Inhibition: 2C9; assay type: in vitro ADME
[1] = biological target: human MAP4K4 kinase domain (Homo sapiens (Human), UniProt O95819); assay: MAP4K4 kinase activity, CisBio HTRF Transcreener ADP assay; assay type: biochemical
Method in brief: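 Kinase activity followed by HTRF Transcreener ADP detection: enzyme-generated ADP competes with d2-labelled ADP for Eu3+-cryptate anti-ADP antibody, read ratiometrically at 665/620 nm. IC50 values reported as categories.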

H9c2 cardiomyocytes = assay: Protection of H9c2 cardiomyocytes; assay type: cell-based; settings: for EC50: Rattus norvegicus, H9c2
[2] = Resistance to degradation in hepatocyte microsomes (Heps); assay type: in vitro ADME
Cyp = Cyp Inhibition; assay type: in vitro ADME
[3] = tested on: mice undergoing experimental myocardial infarction; assay: Experimental myocardial infarction in mice (infarct size, TUNEL staining); assay type: in vivo; settings: for In vivo efficacy (infarct size/area at risk), reduction: mice, experimental myocardial infarction; for reduction in infarct size as a proportion of the area at ischemic risk: 50 mg kg−1 twice by gavage
Experimental: To test if target validation and compound development in hiPSC-CMs might predict success in a whole-animal context, mice undergoing experimental myocardial infarction were treated with Ex-58 or the vehicle control (FIG. 9). […] Treatment was begun either 20 min prior to ischemia (FIG. 9D), or 1 h after reperfusion injury (FIG. 9E, F), the latter having greater relevance to potential clinical benefits.

Formulated solubility = assay type: physicochemical
[4] = tested on: CorV.4U cardiomyocytes (hiPSC-CMs); assay: Protection of CorV.4U cardiomyocytes from H2O2 or menadione (luminescent cell viability assay, human cardiac troponin assay); assay type: cell-based; settings: for EC50: Homo sapiens, Cardiomyocyte
Source text: To substantiate the hypothesis that pharmacological inhibition of MAP4K4 would confer resistance to cell death in human cardiomyocytes, cytoprotection was next assessed using hiPSC-CMs.

[5] = Plasma protein binding (PPB); assay type: in vitro ADME; settings: for fraction unbound: plasma
MLK1/MAP3K9 = MLK1/MAP3K9 (Homo sapiens (Human), UniProt P80192); assay: Kinase selectivity panel: MLK1/MAP3K9; assay type: biochemical
Source text: (§1) Compounds of the present invention were screened for their inhibitory activity against MAP4K4, versus selected off-target hits found with early members of this chemical series. MAP4K4 kinase activity was monitored using the CisBio HTRF Transcreener ADP assay, acompetitive immunoassay with a reproducible Z′>0.6. In the detection step, endogenous ADP and d2-labeled ADP compete for binding an anti-ADP monoclonal antibody labelled with Eu^3+ cryptate. A ratiometric fluorescent read-out is used at 665 and 620 nm. […] Assays were run in Greiner low volume plates with a final reaction volume of 10 μl. The MAP4K4 inhibition data are provided in Table 33 below for selected compounds of the present invention. The data has been categorised based on the IC50 value of the compound as “A”, “B” or “C”.
(§2) The data in Table 34 also provides the fold selectivity of the two compounds in favour of MAP4K4 over the tested kinase. The fold selectivity is indicated in parenthesis.

MLK3/MAP3K11 = MLK3/MAP3K11 (Homo sapiens (Human), UniProt Q16584); assay: Kinase selectivity panel: MLK3/MAP3K11; assay type: biochemical
Source text: as §1, §2

GSK3β = GSK3β (Homo sapiens (Human), UniProt P49841); assay: Kinase selectivity panel: GSK3β; assay type: biochemical
Source text: as §1, §2

GLK/MAP4K3 = GLK/MAP4K3 (Homo sapiens (Human), UniProt Q8IVH8); assay: Kinase selectivity panel: GLK/MAP4K3; assay type: biochemical
Source text: as §1, §2

hiPSC-CMs = assay: Calcium cycling in hiPSC-CMs (Fura-2) under menadione; assay type: cell-based, human
Experimental: Calcium cycling, a hallmark of the cardiac phenotype, likewise is susceptible to redox- and phosphorylation-dependent abnormalities. To determine whether MAP4K4 inhibition might preserve calcium homeostasis, hiPSC-CMs were assessed using the intracellular calcium indicator, Fura-2 (FIG. 8B). […] At 50 μM menadione, spontaneous calcium oscillations persisted in only 8 of 24 cultures (33.3%), versus 21 of 24 receiving 10 μM Ex-58 (87.5%; P<0.001).

Aurora B = Aurora B (Homo sapiens (Human), UniProt Q96GD4); assay: Kinase selectivity panel: Aurora B; assay type: biochemical
Source text: as §1, §2

TNIK/MAP4K7 = TNIK/MAP4K7 (Homo sapiens (Human), UniProt Q9UKE5); assay: Kinase selectivity panel: TNIK/MAP4K7; assay type: biochemical
Source text: as §1, §2

[6] = Pharmacokinetics in mice (IV and oral)
GCK/MAP4K2 = GCK/MAP4K2 (Homo sapiens (Human), UniProt Q12851); assay: Kinase selectivity panel: GCK/MAP4K2; assay type: biochemical
Source text: as §1, §2

[7] = mouse, in vivo, po, 50 mg/kg
NUAK = assay: Kinase selectivity panel: NUAK; assay type: biochemical
Experimental: (§3) In the detection step, endogenous ADP and d2-labeled ADP compete for binding an anti-ADP monoclonal antibody labelled with Eu^3+ cryptate. […] Assays were run in Greiner low volume plates with a final reaction volume of 10 μl.
(§4) The fold selectivity is indicated in parenthesis.

ABL1 = ABL1 (Homo sapiens (Human), UniProt P00519); assay: Kinase selectivity panel: ABL1; assay type: biochemical
Source text: as §1, §2

CorV.4U hiPSC-CMs = assay: Mitochondrial function in CorV.4U hiPSC-CMs after acute oxidative stress (menadione); assay type: cell-based, human; settings: 10 μM compound, 15 μM menadione for 2 h
Experimental: Key aspects of mitochondrial function were monitored in CorV.4U hiPSC-CMs after acute oxidative stress (15 μM menadione for 2 h), with or without Ex-58 (FIG. 8A).

VEGFR = assay: Kinase selectivity panel: VEGFR; assay type: biochemical
Experimental: as §3, §4

KHS/MAP4K5 = KHS/MAP4K5 (Homo sapiens (Human), UniProt Q9Y4K4); assay: Kinase selectivity panel: KHS/MAP4K5; assay type: biochemical
Source text: as §1, §2

FLT3 = FLT3 (Homo sapiens (Human), UniProt P36888); assay: Kinase selectivity panel: FLT3; assay type: biochemical
Source text: as §1, §2

MINK1/MAP4K6 = MINK1/MAP4K6 (Homo sapiens (Human), UniProt Q8N4C8); assay: Kinase selectivity panel: MINK1/MAP4K6; assay type: biochemical
Source text: as §1, §2

[8] = H2O2 as death trigger, read-out: Protection in human iPSC-derived ventricular cardiomyocytes, EC50 H202
[9] = human, read-out: Human PPB % (converted)
[10] = mouse, read-out: Mouse PPB % (converted)

human MAP4K4 kinase domain, sequence (O95819 25-289): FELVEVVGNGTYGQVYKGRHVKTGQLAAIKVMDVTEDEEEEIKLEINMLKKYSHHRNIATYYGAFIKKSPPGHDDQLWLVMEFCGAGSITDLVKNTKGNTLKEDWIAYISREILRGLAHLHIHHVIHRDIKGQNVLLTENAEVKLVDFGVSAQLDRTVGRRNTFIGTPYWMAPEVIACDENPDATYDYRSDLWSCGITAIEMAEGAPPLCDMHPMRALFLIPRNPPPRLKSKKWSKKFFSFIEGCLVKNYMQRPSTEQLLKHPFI
KHS/MAP4K5, sequence (Q9Y4K4 whole entry): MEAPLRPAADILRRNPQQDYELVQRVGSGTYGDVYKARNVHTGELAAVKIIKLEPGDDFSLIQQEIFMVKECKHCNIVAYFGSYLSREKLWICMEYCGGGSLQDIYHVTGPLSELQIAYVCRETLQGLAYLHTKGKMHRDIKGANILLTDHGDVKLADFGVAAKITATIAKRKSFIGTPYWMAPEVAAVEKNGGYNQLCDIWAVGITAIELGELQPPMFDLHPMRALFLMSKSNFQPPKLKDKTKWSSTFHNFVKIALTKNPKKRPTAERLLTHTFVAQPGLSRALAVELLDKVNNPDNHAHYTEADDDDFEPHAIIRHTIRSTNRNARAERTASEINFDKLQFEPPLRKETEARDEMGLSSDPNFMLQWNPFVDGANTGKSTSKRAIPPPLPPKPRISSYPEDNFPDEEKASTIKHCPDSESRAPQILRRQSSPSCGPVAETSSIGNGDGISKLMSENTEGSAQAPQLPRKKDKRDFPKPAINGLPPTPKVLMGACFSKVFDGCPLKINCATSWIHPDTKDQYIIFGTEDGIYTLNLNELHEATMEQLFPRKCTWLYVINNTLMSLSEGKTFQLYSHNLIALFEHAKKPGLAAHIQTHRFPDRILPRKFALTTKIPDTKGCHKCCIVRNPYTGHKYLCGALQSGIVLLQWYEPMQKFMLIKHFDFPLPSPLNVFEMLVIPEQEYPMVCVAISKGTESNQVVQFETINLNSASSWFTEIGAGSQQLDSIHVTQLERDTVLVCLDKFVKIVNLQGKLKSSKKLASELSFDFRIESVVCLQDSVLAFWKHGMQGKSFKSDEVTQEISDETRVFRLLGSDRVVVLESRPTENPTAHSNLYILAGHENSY
GLK/MAP4K3, sequence (Q8IVH8 whole entry): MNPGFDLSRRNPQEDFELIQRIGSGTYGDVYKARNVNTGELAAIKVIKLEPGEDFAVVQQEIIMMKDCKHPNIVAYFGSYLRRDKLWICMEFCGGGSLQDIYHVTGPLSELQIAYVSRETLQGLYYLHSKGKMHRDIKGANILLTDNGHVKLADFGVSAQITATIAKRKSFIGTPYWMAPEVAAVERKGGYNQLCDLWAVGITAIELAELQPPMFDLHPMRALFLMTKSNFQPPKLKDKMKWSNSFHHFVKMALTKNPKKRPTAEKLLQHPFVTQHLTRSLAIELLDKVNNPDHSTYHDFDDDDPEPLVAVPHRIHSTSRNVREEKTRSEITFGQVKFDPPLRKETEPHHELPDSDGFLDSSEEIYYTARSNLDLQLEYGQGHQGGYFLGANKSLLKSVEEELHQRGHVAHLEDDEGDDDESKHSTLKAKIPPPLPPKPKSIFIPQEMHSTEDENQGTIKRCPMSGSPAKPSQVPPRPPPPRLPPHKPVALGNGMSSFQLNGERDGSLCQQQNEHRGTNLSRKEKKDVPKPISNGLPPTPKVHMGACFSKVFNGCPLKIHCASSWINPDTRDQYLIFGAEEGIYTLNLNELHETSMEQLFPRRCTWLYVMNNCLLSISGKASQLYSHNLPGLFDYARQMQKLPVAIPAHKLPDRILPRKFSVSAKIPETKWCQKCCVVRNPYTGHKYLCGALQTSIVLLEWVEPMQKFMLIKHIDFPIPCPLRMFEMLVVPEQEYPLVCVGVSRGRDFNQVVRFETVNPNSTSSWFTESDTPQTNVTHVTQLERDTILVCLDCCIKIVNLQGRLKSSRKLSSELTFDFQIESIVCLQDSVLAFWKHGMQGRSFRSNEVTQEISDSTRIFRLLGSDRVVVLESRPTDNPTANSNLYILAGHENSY
Aurora B, sequence (Q96GD4 whole entry): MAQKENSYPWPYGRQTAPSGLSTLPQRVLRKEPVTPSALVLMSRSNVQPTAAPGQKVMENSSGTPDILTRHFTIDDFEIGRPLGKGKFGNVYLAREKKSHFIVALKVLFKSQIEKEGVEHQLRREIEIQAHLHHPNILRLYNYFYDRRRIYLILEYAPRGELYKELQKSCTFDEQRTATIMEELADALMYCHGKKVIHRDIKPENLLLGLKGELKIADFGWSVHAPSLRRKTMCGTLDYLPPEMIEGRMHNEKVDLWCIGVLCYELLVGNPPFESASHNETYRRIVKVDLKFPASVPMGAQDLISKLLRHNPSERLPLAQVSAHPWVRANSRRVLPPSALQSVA
GSK3β, sequence (P49841 whole entry, species assumed): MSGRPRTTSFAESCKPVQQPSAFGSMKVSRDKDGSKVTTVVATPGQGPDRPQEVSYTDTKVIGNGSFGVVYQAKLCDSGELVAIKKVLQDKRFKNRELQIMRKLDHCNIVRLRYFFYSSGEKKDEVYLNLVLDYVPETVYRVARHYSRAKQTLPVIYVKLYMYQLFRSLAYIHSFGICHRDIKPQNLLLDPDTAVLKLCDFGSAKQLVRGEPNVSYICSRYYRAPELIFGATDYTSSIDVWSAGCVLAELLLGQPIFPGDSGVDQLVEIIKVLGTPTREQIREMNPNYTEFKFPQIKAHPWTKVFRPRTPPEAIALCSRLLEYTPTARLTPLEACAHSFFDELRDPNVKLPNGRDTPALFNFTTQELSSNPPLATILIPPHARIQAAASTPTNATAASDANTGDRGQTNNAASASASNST
MLK3/MAP3K11, sequence (Q16584 whole entry): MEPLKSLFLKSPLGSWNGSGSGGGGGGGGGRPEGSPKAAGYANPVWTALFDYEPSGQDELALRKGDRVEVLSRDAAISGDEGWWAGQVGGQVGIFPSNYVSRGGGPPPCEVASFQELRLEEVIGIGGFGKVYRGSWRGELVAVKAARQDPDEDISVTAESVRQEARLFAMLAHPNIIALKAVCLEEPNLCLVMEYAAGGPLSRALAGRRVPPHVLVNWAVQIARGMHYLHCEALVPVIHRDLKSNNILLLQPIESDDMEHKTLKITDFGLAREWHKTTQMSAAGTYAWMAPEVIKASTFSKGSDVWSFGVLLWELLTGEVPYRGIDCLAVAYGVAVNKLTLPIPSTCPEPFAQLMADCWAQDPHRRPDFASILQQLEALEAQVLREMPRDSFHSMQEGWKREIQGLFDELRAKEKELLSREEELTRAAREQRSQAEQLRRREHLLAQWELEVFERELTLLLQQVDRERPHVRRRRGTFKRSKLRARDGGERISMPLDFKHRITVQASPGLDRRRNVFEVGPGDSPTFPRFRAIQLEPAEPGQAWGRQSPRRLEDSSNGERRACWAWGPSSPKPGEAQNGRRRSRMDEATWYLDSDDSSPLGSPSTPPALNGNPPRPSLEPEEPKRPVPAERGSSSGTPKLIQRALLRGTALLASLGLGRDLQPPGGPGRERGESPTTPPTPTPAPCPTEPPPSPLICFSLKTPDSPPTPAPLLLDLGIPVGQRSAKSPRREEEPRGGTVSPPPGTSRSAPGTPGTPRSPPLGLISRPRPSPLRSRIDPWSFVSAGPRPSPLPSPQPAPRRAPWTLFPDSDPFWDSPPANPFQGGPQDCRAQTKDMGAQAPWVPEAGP
GCK/MAP4K2, sequence (Q12851 whole entry): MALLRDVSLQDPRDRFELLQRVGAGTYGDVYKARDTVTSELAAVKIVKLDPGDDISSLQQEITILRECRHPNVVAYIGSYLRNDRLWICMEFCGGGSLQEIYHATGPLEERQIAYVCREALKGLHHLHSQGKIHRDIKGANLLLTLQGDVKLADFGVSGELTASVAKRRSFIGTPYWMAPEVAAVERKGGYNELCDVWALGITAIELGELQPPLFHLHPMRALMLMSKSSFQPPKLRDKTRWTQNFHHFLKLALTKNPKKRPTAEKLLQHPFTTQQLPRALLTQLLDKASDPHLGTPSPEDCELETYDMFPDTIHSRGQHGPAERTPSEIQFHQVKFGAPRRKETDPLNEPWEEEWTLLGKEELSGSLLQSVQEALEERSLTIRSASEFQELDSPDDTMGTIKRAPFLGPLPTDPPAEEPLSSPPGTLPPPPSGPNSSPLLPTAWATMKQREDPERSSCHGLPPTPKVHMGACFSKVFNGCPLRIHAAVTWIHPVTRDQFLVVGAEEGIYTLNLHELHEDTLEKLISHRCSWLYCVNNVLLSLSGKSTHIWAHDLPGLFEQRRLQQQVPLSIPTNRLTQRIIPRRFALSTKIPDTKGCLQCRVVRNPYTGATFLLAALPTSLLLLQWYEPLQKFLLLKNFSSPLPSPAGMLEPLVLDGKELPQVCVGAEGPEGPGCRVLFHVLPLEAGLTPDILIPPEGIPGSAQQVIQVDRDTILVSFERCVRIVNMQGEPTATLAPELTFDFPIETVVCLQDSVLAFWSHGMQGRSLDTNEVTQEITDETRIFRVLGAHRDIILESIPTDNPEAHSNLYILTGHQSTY
Cyp 2C9, sequence (P11712 whole entry, the tested form may be a part): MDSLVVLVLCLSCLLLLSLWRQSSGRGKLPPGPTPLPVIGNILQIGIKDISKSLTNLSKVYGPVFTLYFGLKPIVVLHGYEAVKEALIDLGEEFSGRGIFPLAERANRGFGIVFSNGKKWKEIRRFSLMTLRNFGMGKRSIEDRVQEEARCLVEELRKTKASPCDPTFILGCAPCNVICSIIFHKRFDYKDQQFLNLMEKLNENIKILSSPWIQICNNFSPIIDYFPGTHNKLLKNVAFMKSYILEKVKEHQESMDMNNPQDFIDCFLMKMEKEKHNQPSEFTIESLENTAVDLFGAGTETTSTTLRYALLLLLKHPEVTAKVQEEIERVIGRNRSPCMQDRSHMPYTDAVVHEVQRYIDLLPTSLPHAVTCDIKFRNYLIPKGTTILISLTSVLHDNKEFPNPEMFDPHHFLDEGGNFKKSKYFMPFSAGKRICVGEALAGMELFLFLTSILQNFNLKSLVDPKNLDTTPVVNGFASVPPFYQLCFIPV

O=c1[nH]cnc2c1c(-c1ccc(OCC3(CO)COC3)cc1)cn2-c1ccccc1 [Ex-54]
Cyp Inhibition 2C9 (Cyp 2C9): (2C9 8 μM)
IC50 ([1]; read-out: MAP4K4, IC50): 4 nM
Protection in H9c2 cardiomyocytes, efficacy relative to Ex-58 (H9c2 cardiomyocytes): (0.3)
EC50 (H9c2 cardiomyocytes): 199 nM
resistance to degradation in hepatocyte microsomes (Heps) relative to Ex-58 [2]: superior
Human Heps [2]: 5
Mouse Heps [2]: 25
Pig Heps [2]: 6
Rat Heps [2]: 3
Cyp Inhibition (Cyp): >10 µM
In vivo efficacy (infarct size/area at risk), reduction [3]: 53% reduction
infarct size in mice (in words) ([3]; mouse, in vivo): Reduction of infarct size
solubility (Formulated solubility): 300 µg/mL (≈ 744 µM)
Protection in human iPSC-derived ventricular cardiomyocytes, H202, efficacy relative to Ex-58 ([4]; H2O2 as death trigger): (0.9)
EC50 [4, 8]: 469 nM
EC50 ([4]; read-out: EC50, protection of human cardiomyocytes): < 1000 nM
plasma protein binding (PPB) relative to Ex-58 [5]: superior
fraction unbound [5, 9]: 0.03
fraction unbound [5, 10]: 0.03

COCCOc1ccc(-c2cn(-c3ccccc3)c3nc[nH]c(=O)c23)cc1 [Ex-58, 5-[4-(2-Methoxy-ethoxy)-phenyl]-7-phenyl-3,7-dihydro-pyrrolo[2,3-d]pyrimidin-4-one]
fold selectivity for MAP4K4 over MLK1/MAP3K9 (MLK1/MAP3K9): (23) fold
pIC50 MLK1/MAP3K9 (MLK1/MAP3K9): 7.19
fold selectivity for MAP4K4 over MLK3/MAP3K11 (MLK3/MAP3K11): (36) fold
pIC50 MLK3/MAP3K11 (MLK3/MAP3K11): 6.99
greater potency than F1386-0303 [1]: 10 fold
pIC50 MAP4K4 [1]: 8.55
IC50 ([1]; ATP at Km (10 μM), 0.5 nM kinase domain, 2 h, read-out: MAP4K4): ≤ 100 nM
selectivity for MAP4K4 (in words) ([1]; compared to F1386-303, 13 other protein kinases): highly selective
IC50 ([1]; read-out: MAP4K4, IC50): 3 nM
fold selectivity for MAP4K4 over GSK3β (GSK3β): (7762) fold
pIC50 GSK3β (GSK3β): 4.66
Protection in H9c2 cardiomyocytes, efficacy relative to Ex-58 (H9c2 cardiomyocytes): (1)
EC50 (H9c2 cardiomyocytes): 350 nM
Human Heps [2]: ≤10
Mouse Heps [2]: 85
Pig Heps [2]: 8
Rat Heps [2]: 10
Cyp Inhibition (Cyp): >10 µM
fold selectivity for MAP4K4 over GLK/MAP4K3 (GLK/MAP4K3): (3981) fold
pIC50 GLK/MAP4K3 (GLK/MAP4K3): 4.95
cultures with persisting spontaneous calcium oscillations (hiPSC-CMs; 10 μM compound, 50 μM menadione, 21 of 24 cultures): 87.5%
adverse effect on functional parameters (hiPSC-CMs; hiPSC-CMs, mitochondrial function and calcium cycling): no adverse effect
fold selectivity for MAP4K4 over Aurora B (Aurora B): (560) fold
pIC50 Aurora B (Aurora B): 5.49
reduction in infarct size as a proportion of the area at ischemic risk ([3]; begun 20 min prior to ischemia): more than 50%
reduction in infarct size as a proportion of the area at ischemic risk ([3]; begun 1 h after reperfusion injury): > 60%
In vivo efficacy (infarct size/area at risk), reduction [3]: 65% reduction
suppression of cardiomyocyte apoptosis (TUNEL) in the jeopardized adjacent myocardium ([3]; post-injury study): 52%
suppression of cardiomyocyte apoptosis (TUNEL) within the infarct ([3]; post-injury study): 39%
pIC50 TNIK/MAP4K7 (TNIK/MAP4K7): 7.96
improvement of free plasma concentration over the earlier compound ([6]; 50 mg kg-1 oral dose, versus F1386-0303): > 80 fold
concentration at 1 h ([6]; mouse, plasma, po, 50 mg kg-1): 334 nM
concentration at 10 h ([6]; mouse, plasma, po, 50 mg kg-1): 8 nM
fold selectivity for MAP4K4 over GCK/MAP4K2 (GCK/MAP4K2): (112) fold
pIC50 GCK/MAP4K2 (GCK/MAP4K2): 6.50
protection of human cardiomyocytes (in words) ([4]; CorV.4U cells, H2O2 and menadione, both viability assays): Protection of human cardiomyocytes was substantiated
Protection in human iPSC-derived ventricular cardiomyocytes, H202, efficacy relative to Ex-58 ([4]; H2O2 as death trigger): (1)
EC50 [4, 8]: 403 nM
AUCinf [7]: 63733
fold selectivity for MAP4K4 over NUAK (NUAK): (47) fold
pIC50 NUAK (NUAK): 6.88
fold selectivity for MAP4K4 over ABL1 (ABL1): (560) fold
pIC50 ABL1 (ABL1): 5.80
extracellular acidification rate (glycolytic function) (CorV.4U hiPSC-CMs): largely rescued
fold selectivity for MAP4K4 over VEGFR (VEGFR): (675) fold
pIC50 VEGFR (VEGFR): 5.72
fold selectivity for MAP4K4 over KHS/MAP4K5 (KHS/MAP4K5): (153) fold
pIC50 KHS/MAP4K5 (KHS/MAP4K5): 6.36
fold selectivity for MAP4K4 over FLT3 (FLT3): (1148) fold
pIC50 FLT3 (FLT3): 5.31
fraction unbound [5, 9]: 0.01
fraction unbound [5, 10]: 0.02
pIC50 MINK1/MAP4K6 (MINK1/MAP4K6): 8.18
